Laboratory results reported in PMC11641365, “Evaluation of In Vitro Biological Activity of Flavanone/Chromanone Derivatives: Molecular Analysis of Anticancer Mechanisms in Colorectal Cancer” (International Journal of Molecular Sciences, 2024).

Legend:
Assay type in all cases: cell-based, human
Caco-2 = assay: Hydrogen peroxide level, H2DCFDA probe; settings: compound at IC50, 24 h, vs control
Protocol: (§1) Cellular H2O2 levels were assessed using 2′,7′-dichlorodihydrofluorescein diacetate (H2DCFDA, Sigma-Aldrich, St. Louis, MO, USA), a well-established fluorogenic probe for intracellular hydrogen peroxide detection. H2DCFDA readily diffuses across the cell membrane and is subsequently hydrolyzed by intracellular esterases to non-fluorescent H2DCF. Oxidation of H2DCF by ROS generates highly fluorescent 2′,7′-dichlorofluorescein (DCF), which accumulates in the cytosol. […] The fluorescence intensity of DCF is directly proportional to the concentration of ROS within the cell.
(§2) Cells were seeded in black 96-well fluorometric microplates at a density of 10 × 10^3 cells/mL. […] Following compound incubation, the medium was removed, and the cell monolayers were washed twice with HBSS (140 mM NaCl, 5 mM KCl, 0.8 mM MgCl2, 1.8 mM CaCl2, 1 mM Na2HPO4, 10 mM HEPES, and 1% glucose). A volume of 50 µL of H2DCFDA solution in HBSS (final concentration 5 μM) was added to each well, and the cells were incubated for 30 min in the dark at 37 °C. After incubation with the H2DCFDA, fluorescence measurements were conducted using a Perkin-Elmer LS-5B spectrofluorometer (MA, USA) at the following excitation and fluorescence emission wavelengths: λex = 498 nm/λem = 522 nm. The fluorescence intensity of control cells was arbitrarily assigned a value of 100%. The results were expressed as percentages of control, calculated by comparing the fluorescence intensity ratio of the test samples to controls (100%). The fluorescence of samples was denoted as Δf in relation to the control.

HT-29 = assay: Reactive nitrogen species level, DAF-FM probe; settings: compound at IC50, 24 h
Protocol: (§3) Diaminofluorescein-FM diacetate (DAF-FM diacetate, Invitrogen, Carlsbad, CA, USA), a cell-permeable fluorescent probe, is widely utilized for the detection and quantification of reactive nitrogen species (RNS), primarily nitric oxide (NO). […] Upon interaction with NO, however, it undergoes a chemical transformation resulting in the formation of a highly fluorescent benzotriazole derivative with excitation and emission maxima at 495 and 515 nm, respectively.
as §2, with “[…] Fluorescence” for “A volume of 50 µL of H2DCFDA solution in HBSS (final concentration 5 μM) was added to each well, and the cells were incubated for 30 min in the dark at 37 °C. After incubation with the H2DCFDA, fluorescence”, “495” for “498”, “515” for “522”

SW620 [1] = assay: Reactive nitrogen species level, DAF-FM probe; settings: compound at IC50, 24 h
Protocol: as §3
as §2, with “[…] Fluorescence” for “A volume of 50 µL of H2DCFDA solution in HBSS (final concentration 5 μM) was added to each well, and the cells were incubated for 30 min in the dark at 37 °C. After incubation with the H2DCFDA, fluorescence”, “495” for “498”, “515” for “522”

HCT 116 = assay: Hydrogen peroxide level, H2DCFDA probe; settings: compound at IC50, 24 h
Protocol: as §1, §2

SW620 [2] = assay: Hydrogen peroxide level, H2DCFDA probe; settings: compound at IC50, 24 h, vs control
Protocol: as §1, §2

Row | Compound | Increase in H2O2 levels (Caco-2) | Change in RNS levels (HT-29) | Change in RNS levels (SW620 [1]) | Effect on H2O2 levels (HCT 116) | Increase in H2O2 levels (SW620 [2]) [%]
1 | O=C1/C(=C/c2ccccc2)COc2ccccc21 [Compound 1] | approximately 25% | significantly increased RNS levels | significantly increased RNS levels |  | 
2 | O=C1/C(=C/c2ccccc2)C(c2ccccc2)Oc2ccccc21 (centres unmarked) [Compound 5] |  |  |  | did not affect H2O2 levels | 15
